Assay results as given in PubChem BioAssay (NCI).
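How tested: cells in 96-well plates exposed to compound for 48 hours at five concentrations. GI50 = concentration required for 50% inhibition of growth. TGI: concentration producing complete growth inhibition.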

Key:
Assay in all cases: DTP human tumour cell line panel, 48 h
A549 NSCLC = test system: A549 NSCLC
U251 CNS = test system: U251 CNS
CCRF-CEM leukemia = test system: CCRF-CEM leukemia
OVCAR-5 ovarian = test system: OVCAR-5 ovarian
HT29 colon = test system: HT29 colon
UACC-62 melanoma = test system: UACC-62 melanoma
SNB-19 CNS = test system: SNB-19 CNS
HL-60(TB) leukemia = test system: HL-60(TB) leukemia
HCC-2998 colon = test system: HCC-2998 colon
786-0 renal = test system: 786-0 renal
K-562 leukemia = test system: K-562 leukemia
SF-539 CNS = test system: SF-539 CNS
NCI-H522 lung = test system: NCI-H522 lung
TK-10 renal = test system: TK-10 renal
UACC-257 melanoma = test system: UACC-257 melanoma
PC-3 prostate = test system: PC-3 prostate
OVCAR-4 ovarian = test system: OVCAR-4 ovarian
SF-268 CNS = test system: SF-268 CNS
OVCAR-8 ovarian = test system: OVCAR-8 ovarian
HOP-92 NSCLC = test system: HOP-92 NSCLC
T-47D breast = test system: T-47D breast
UO-31 renal = test system: UO-31 renal
SNB-75 CNS = test system: SNB-75 CNS
SR leukemia = test system: SR leukemia
CAKI-1 renal = test system: CAKI-1 renal
A498 renal = test system: A498 renal
SW-620 colon = test system: SW-620 colon
SK-OV-3 ovarian = test system: SK-OV-3 ovarian
HOP-62 NSCLC = test system: HOP-62 NSCLC

`COc1ccc(CCn2c3c(c4c(O)cccc42)C(=O)c2ccccc2-3)cc1OC` was tested, and the TGI (A549 NSCLC) was over 100 µM, the GI50 (U251 CNS) was 41.8 µM and the TGI (U251 CNS) was over 100 µM. It also gave a GI50 (CCRF-CEM leukemia) of 20 µM, a TGI (CCRF-CEM leukemia) of over 66.8 µM and a GI50 (OVCAR-5 ovarian) of over 42 µM. For the same compound, the TGI (OVCAR-5 ovarian) was over 84.2 µM, the GI50 (HT29 colon) was 43.5 µM and the TGI (HT29 colon) was over 100 µM. The GI50 (UACC-62 melanoma) was 21.5 µM, the TGI (UACC-62 melanoma) was over 72.9 µM and the GI50 (SNB-19 CNS) was over 100 µM. It also gave a TGI (SNB-19 CNS) of over 100 µM, a GI50 (HL-60(TB) leukemia) of 20.3 µM and a TGI (HL-60(TB) leukemia) of 53 µM. For the same compound, the GI50 (HCC-2998 colon) was 19.5 µM, the TGI (HCC-2998 colon) was 43.4 µM and the GI50 (786-0 renal) was 36.8 µM. The TGI (786-0 renal) was over 69.4 µM, the GI50 (K-562 leukemia) was 12.5 µM and the TGI (K-562 leukemia) was 69.7 µM. It also gave a GI50 (SF-539 CNS) of 6.65 µM, a TGI (SF-539 CNS) of over 51.2 µM and a GI50 (NCI-H522 lung) of 20.8 µM. It also gave a TGI (NCI-H522 lung) of over 60.4 µM, a GI50 (TK-10 renal) of 28.6 µM and a TGI (TK-10 renal) of over 74.1 µM. The GI50 (UACC-257 melanoma) was 52.6 µM, the TGI (UACC-257 melanoma) was 98.6 µM and the GI50 (PC-3 prostate) was 37.4 µM. It also gave a TGI (PC-3 prostate) of over 100 µM, a GI50 (OVCAR-4 ovarian) of 71.8 µM and a TGI (OVCAR-4 ovarian) of over 100 µM. It also gave a GI50 (SF-268 CNS) of 38.9 µM, a TGI (SF-268 CNS) of over 100 µM and a GI50 (OVCAR-8 ovarian) of 34.3 µM. The TGI (OVCAR-8 ovarian) was over 83.6 µM, the GI50 (HOP-92 NSCLC) was over 72.5 µM and the TGI (HOP-92 NSCLC) was over 100 µM. It also gave a GI50 (T-47D breast) of 67.9 µM, a TGI (T-47D breast) of over 100 µM and a GI50 (UO-31 renal) of 37.5 µM. For the same compound, the TGI (UO-31 renal) was over 100 µM, the GI50 (SNB-75 CNS) was over 100 µM and the TGI (SNB-75 CNS) was over 100 µM. The GI50 (SR leukemia) was 12.9 µM, the TGI (SR leukemia) was 34 µM and the GI50 (CAKI-1 renal) was 36.3 µM. For the same compound, the TGI (CAKI-1 renal) was over 96.5 µM, the GI50 (A498 renal) was over 100 µM and the TGI (A498 renal) was over 100 µM. It also gave a GI50 (SW-620 colon) of 31.1 µM, a TGI (SW-620 colon) of over 75.6 µM and a GI50 (SK-OV-3 ovarian) of over 100 µM. For the same compound, the TGI (SK-OV-3 ovarian) was over 100 µM, the GI50 (HOP-62 NSCLC) was over 35.6 µM and the TGI (HOP-62 NSCLC) was over 59.3 µM.
